Patent US10316049B2, “Tank-binding kinase inhibitor compounds” (Gilead Sciences, Inc., priority 2015, dated 2019)

What was measured:
TBK1 = biological target: T1, TBK1 (Homo sapiens, UniProt Q9UHD2); experiment: TR-FRET enzymatic activity assay, TBK1; assay type: biochemical; further: full length recombinant TBK1 at 2.5 nM
T1 construct: TBK1 and IKKε were expressed and purified as full length recombinant proteins; made in house
T1 sequence (Q9UHD2 1-729): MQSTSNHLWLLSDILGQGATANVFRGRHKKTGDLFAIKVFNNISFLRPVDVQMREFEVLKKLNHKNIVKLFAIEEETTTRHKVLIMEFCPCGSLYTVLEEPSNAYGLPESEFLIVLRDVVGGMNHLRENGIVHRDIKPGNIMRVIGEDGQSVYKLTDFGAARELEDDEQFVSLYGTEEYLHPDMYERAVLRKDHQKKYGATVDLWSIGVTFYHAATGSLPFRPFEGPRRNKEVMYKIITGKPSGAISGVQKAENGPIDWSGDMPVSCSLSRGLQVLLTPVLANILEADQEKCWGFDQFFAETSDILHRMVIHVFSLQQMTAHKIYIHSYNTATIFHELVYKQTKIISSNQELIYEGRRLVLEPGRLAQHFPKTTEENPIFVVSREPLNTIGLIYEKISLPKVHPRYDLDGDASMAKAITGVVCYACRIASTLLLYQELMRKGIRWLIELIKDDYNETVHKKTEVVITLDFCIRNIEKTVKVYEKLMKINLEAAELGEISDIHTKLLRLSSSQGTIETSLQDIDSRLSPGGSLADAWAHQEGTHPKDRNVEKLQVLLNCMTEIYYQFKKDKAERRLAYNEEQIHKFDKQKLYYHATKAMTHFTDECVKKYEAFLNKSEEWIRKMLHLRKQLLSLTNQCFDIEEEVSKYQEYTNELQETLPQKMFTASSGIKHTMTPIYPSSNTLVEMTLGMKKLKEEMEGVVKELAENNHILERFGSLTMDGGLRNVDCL
In short: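 Full-length recombinant enzymes phosphorylated a biotinylated Ser/Thr peptide for 240 min at 25 °C, stopped with EDTA. Phosphopeptide detected by TR-FRET (streptavidin XL665, Eu-cryptate anti-phospho antibody). IC50 from four-parameter fits normalized to 1 μM staurosporine and DMSO controls, as geometric means of at least four determinations.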

IKKε = biological target: T2, IKKε (Homo sapiens, UniProt Q14164); experiment: TR-FRET enzymatic activity assay, IKKε; assay type: biochemical; conditions: read-out: IKKϵ IC50; further: full length recombinant IKKε at 0.3 nM
T2 construct: TBK1 and IKKε were expressed and purified as full length recombinant proteins; made in house
T2 sequence (Q14164 1-716): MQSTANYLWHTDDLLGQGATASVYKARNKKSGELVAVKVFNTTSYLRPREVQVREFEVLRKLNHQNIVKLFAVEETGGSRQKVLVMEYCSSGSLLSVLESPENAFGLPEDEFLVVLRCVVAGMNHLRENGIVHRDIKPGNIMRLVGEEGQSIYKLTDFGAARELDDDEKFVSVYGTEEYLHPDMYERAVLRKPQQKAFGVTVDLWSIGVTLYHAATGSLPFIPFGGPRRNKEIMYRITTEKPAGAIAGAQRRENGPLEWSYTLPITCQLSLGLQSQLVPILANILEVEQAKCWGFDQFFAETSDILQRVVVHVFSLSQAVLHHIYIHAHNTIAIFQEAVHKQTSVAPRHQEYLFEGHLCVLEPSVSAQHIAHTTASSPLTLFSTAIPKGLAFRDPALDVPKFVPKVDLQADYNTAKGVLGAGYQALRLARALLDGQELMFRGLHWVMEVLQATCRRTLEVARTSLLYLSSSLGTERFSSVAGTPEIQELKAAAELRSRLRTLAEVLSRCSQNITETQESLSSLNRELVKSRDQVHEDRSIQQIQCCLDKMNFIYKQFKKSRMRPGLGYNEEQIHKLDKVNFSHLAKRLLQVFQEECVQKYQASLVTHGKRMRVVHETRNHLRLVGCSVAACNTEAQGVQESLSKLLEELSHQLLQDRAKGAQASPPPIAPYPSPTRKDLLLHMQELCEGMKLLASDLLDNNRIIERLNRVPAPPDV
In short: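 Full-length recombinant IKKε phosphorylated a biotinylated Ser/Thr peptide for 240 min at 25 °C; EDTA stop. Phospho-peptide detected by TR-FRET with streptavidin-XL665 (125 nM) and Eu-cryptate anti-phospho antibody. Normalised to staurosporine and DMSO controls; IC50 from four-parameter fit, geometric mean of ≥4 runs.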

Row | Compound | IC50 (TBK1) | IC50 (IKKε)
1 | Cn1cc([C@@H]2C[C@H]2C(=O)Nc2cc(-c3ccc(O[C@H]4CCN(C(=O)[C@@H](O)CO)CC4(F)F)c(C#N)c3)ncn2)cn1 [Example 132, (1,2-Trans)-N-(6-(3-cyano-4-(((S)-1-((S)-2,3-dihydroxypropanoyl)-3,3-difluoropiperidin-4-yl)oxy)phenyl)pyrimidin-4-yl)-2-(1-methyl-1H-pyrazol-4-yl)cyclopropane-1-carboxamide] | 4.7 nM | 12.3 nM
2 | N#Cc1cc(-c2ccnc(NC(=O)[C@@H]3C[C@H]3c3ccc(C4CC4)nc3)c2)ccc1O[C@H]1CCN(C(=O)CO)CC1(F)F [Example 115, (1R,2R)—N-(4-(3-cyano-4-(((S)-3,3-difluoro-1-(2-hydroxyacetyl)piperidin-4-yl)oxy)phenyl)pyridin-2-yl)-2-(6-cyclopropylpyridin-3-yl)cyclopropane-1-carboxamide] | 8.1 nM | 7.1 nM
3 | N#Cc1cc(-c2ccnc(NC(=O)[C@@H]3C[C@H]3c3cnco3)c2)ccc1OC1CCOCC1 (relative stereo) [Example 43, (1,2-trans)-N-(4-(3-cyano-4-((tetrahydro-2H-pyran-4-yl)oxy)phenyl)pyridin-2-yl)-2-(oxazol-5-yl)cyclopropane-1-carboxamide] | 61.3 nM | 146 nM
4 | C[C@H](O)C(=O)N1CC[C@H](Oc2ccc(-c3ccnc(NC(=O)C4CC4)c3)cc2C#N)[C@H](F)C1 [Example 9, N-(4-(3-cyano-4-(((3R,4S)-3-fluoro-1-((S)-2-hydroxypropanoyl)piperidin-4-yl)oxy)phenyl)pyridin-2-yl)cyclopropanecarboxamide] | 15.2 nM | 46.4 nM
5 | N#Cc1cc(-c2ccnc(NC(=O)[C@H]3C[C@@H]3c3cccc(F)c3)c2)ccc1OC1CCOCC1 (relative stereo) [Example 119, (1,2-Trans)-N-(4-(3-cyano-4-((tetrahydro-2H-pyran-4-yl)oxy)phenyl)pyridin-2-yl)-2-(3-fluorophenyl)cyclopropane-1-carboxamide] | 99.3 nM | > 1000 nM
6 | N#Cc1cc(-c2ccnc(NC(=O)[C@@H]3C[C@H]3c3cccnc3)c2)ccc1O[C@H]1CCN(C(=O)[C@@H](O)CO)CC1(F)F [Example 139, (1R,2R)—N-(4-(3-cyano-4-(((S)-1-((S)-2,3-dihydroxypropanoyl)-3,3-difluoropiperidin-4-yl)oxy)phenyl)pyridin-2-yl)-2-(pyridin-3-yl)cyclopropane-1-carboxamide] | 15.8 nM | 16.1 nM
7 | Cn1cc([C@@H]2C[C@H]2C(=O)Nc2cc(-c3ccc(O[C@H]4CCN(C(=O)[C@@H](O)CO)CC4(F)F)c(C#N)c3)ccn2)cn1 [Example 131, (1,2-Trans)-N-(4-(3-cyano-4-(((S)-1-((S)-2,3-dihydroxypropanoyl)-3,3-difluoropiperidin-4-yl)oxy)phenyl)pyridin-2-yl)-2-(1-methyl-1H-pyrazol-4-yl)cyclopropane-1-carboxamide] | 6.6 nM | 11.6 nM
8 | N#Cc1cc(-c2cc(NC(=O)C3CC3)ncn2)ccc1O[C@H]1CCN(C(=O)c2nnc[nH]2)C[C@H]1F [Example 28, N-(6-(3-cyano-4-(((3R,4S)-3-fluoro-1-(4H-1,2,4-triazole-3-carbonyl)piperidin-4-yl)oxy)phenyl)pyrimidin-4-yl)cyclopropanecarboxamide] | 8 nM | 12.4 nM
9 | N#Cc1cc(-c2ccnc(NC(=O)C3C4CC3C4C(N)=O)c2)ccc1OC1CCOCC1 (centres unmarked) [Example 56, N-(4-(3-cyano-4-((tetrahydro-2H-pyran-4-yl)oxy)phenyl)pyridin-2-yl)bicyclo[1.1.1]pentane-2,4-dicarboxamide] | > 1000 nM | 444 nM
10 | N#Cc1cc(-c2ccnc(NC(=O)C3CC3)c2)ccc1O[C@H]1CCN(C(=O)CO)C[C@H]1F [Example 8, N-(4-(3-cyano-4-(((3R,4S)-3-fluoro-1-(2-hydroxyacetyl)piperidin-4-yl)oxy)phenyl)pyridin-2-yl)cyclopropanecarboxamide] | 10.4 nM | 25.1 nM
11 | CC(C)(C)OC(=O)N1CC[C@H](Oc2ccc(-c3cc(NC(=O)C4CC4)ncn3)cc2C#N)C(F)(F)C1 [Example 104, Tert-butyl (S)-4-(2-cyano-4-(6-(cyclopropanecarboxamido)pyrimidin-4-yl)phenoxy)-3,3-difluoropiperidine-1-carboxylate] | > 1000 nM | > 1000 nM
12 | N#Cc1cc(-c2ccnc(NC(=O)[C@H]3C[C@@H]3c3cccnc3)c2)ccc1O[C@H]1CCN(C(=O)[C@@H](O)CO)CC1(F)F [Example 140, (1S, 2S)—N-(4-(3-cyano-4-(((S)-1-((S)-2,3-dihydroxypropanoyl)-3,3-difluoropiperidin-4-yl)oxy)phenyl)pyridin-2-yl)-2-(pyridin-3-yl)cyclopropane-1-carboxamide] | 4.6 nM | 5.9 nM

The next lines start with the values.

Row | IC50 (TBK1) | IC50 (IKKε) | Compound
13 | > 1000 nM | > 1000 nM | C[n+]1ccccc1N1CC[C@H](Oc2ccc(-c3cc(NC(=O)C4CC4)ncn3)cc2C#N)[C@H](F)C1 [Example 31, 2-((3R,4S)-4-(2-cyano-4-(6-(cyclopropanecarboxamido)pyrimidin-4-yl)phenoxy)-3-fluoropiperidin-1-yl)-1-methylpyridin-1-ium 2,2,2-trifluoroacetate]
14 | 108 nM | 115 nM | N#Cc1cc(-c2ccnc(NC(=O)[C@@H]3C[C@H]3C(N)=O)c2)ccc1O[C@H]1CCN(C(=O)CO)C[C@H]1F [Example 85, (1,2-trans)-N-(4-(3-cyano-4-(((3R,4S)-3-fluoro-1-(2-hydroxyacetyl)piperidin-4-yl)oxy)phenyl)pyridin-2-yl)cyclopropane-1,2-dicarboxamide]
15 | 21.4 nM | 27.4 nM | N#Cc1cc(-c2ccnc(NC(=O)[C@@H]3C[C@H]3c3cccnc3)c2)ccc1O[C@H]1CCN(C(=O)CO)C[C@H]1F [Example 135, (1R,2R)—N-(4-(3-cyano-4-(((3R,4S)-3-fluoro-1-(2-hydroxyacetyl)piperidin-4-yl)oxy)phenyl)pyridin-2-yl)-2-(pyridin-3-yl)cyclopropane-1-carboxamide]
16 | > 1000 nM | > 1000 nM | CC(=O)OC1(C(=O)Nc2cc(-c3ccc(OC4CCOCC4)c(C#N)c3)ccn2)CC1 [Example 37, 1-((4-(3-cyano-4-((tetrahydro-2H-pyran-4-yl)oxy)phenyl)pyridin-2-yl)carbamoyl)cyclopropyl acetate]
17 | 20.3 nM | 128 nM | C[C@H]1CCCN1c1ccc(-c2ccnc(NC(=O)C3CC3)c2)cc1C#N [Example 92, (S)—N-(4-(3-cyano-4-(2-methylpyrrolidin-1-yl)phenyl)pyridin-2-yl)cyclopropanecarboxamide]
18 | 61.5 nM | 65 nM | N#Cc1cc(-c2ccnc(NC(=O)[C@@H]3C[C@H]3C=O)c2)ccc1OC1CCOCC1 (relative stereo) [Example 40, (1,2-trans)-N-(4-(3-cyano-4-((tetrahydro-2H-pyran-4-yl)oxy)phenyl)pyridin-2-yl)-2-formylcyclopropane-1-carboxamide]
19 | > 1000 nM | > 1000 nM | CN(C)C(=O)[C@@H]1C[C@@H]1C(=O)Nc1cc(-c2ccc(O[C@H]3CCN(C(=O)CO)C[C@H]3F)c(C#N)c2)ccn1 [Example 79, (1,2-cis)-N^1-(4-(3-cyano-4-(((3R,4S)-3-fluoro-1-(2-hydroxyacetyl)piperidin-4-yl)oxy)phenyl)pyridin-2-yl)-N^2,N^2-dimethylcyclopropane-1,2-dicarboxamide]
